Data from paper PMC3776224, “Investigation of acyclic uridine amide and 5′-amido nucleoside analogues as potential inhibitors of the Plasmodium falciparum dUTPase^” (Bioorganic & Medicinal Chemistry, 2013).
Where two headings read alike, the source gives them in different places.

Legend:
[1] = test system: L6 cells (rat skeletal myoblast cells); details: previously reported, cited from earlier work; for EC50: cytotoxicity on rat L6 myoblasts, mean of two independent assays, read-out: In vitro assays EC50 L6 cells
[2] = target: T1, recombinant PfdUTPase (Plasmodium falciparum, UniProt Q8II92); details: previously reported; cited from earlier work
T1 construct: made in house; host or cells: E. coli BL21 (DE3)
T1 sequence (Q8II92 1-173): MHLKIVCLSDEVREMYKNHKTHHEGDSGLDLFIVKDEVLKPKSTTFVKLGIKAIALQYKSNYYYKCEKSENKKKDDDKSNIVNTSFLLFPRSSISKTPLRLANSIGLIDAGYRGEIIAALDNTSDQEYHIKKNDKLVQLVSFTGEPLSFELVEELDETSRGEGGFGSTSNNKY

[3] = target: T2, human dUTPase (HsdUTPase) (Homo sapiens, UniProt P33316); details: previously reported; read-out: Enzyme assay Ki HsdUTPase; cited from earlier work
T2 construct: made in house; host or cells: E. coli BL21 (DE3)
T2 sequence (P33316 112-252 limits assumed): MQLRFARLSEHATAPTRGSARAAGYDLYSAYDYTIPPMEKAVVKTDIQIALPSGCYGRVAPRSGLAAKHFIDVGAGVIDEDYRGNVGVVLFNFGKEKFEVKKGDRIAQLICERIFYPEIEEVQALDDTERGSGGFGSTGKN

[4] = test system: P. falciparum K1, a chloroquine and pyrimethamine resistant strain; details: mean of two independent assays, previously reported, read-out: In vitro assays EC50 P.f.; cited from earlier work
[5] = target: T1, recombinant PfdUTPase; experiment: PfdUTPase enzyme inhibition assay (dUTP hydrolysis, Ki); format: biochemical; details: for Ki: read-out: Enzyme assay, Ki P.fal
Description: (§1) Biological activity was evaluated by testing all compounds against the recombinant PfdUTPase and human dUTPase (HsdUTPase) in order to determine inhibition constants and selectivity.
Both recombinant P. falciparum and human dUTPases were expressed in E. coli BL21 (DE3) cells which had been transformed with the pET11Pfdut and pET3Hudut (kindly provided by P.O. Nyman, Lund University, Sweden) expression vectors, respectively. For dUTPase purification, the same procedure was used for both the human and the Plasmodium enzymes. Cell pellets from a 2.8 L IPTG-induced culture were resuspended in 70 mL of buffer A (20 mM MES, 50 mM NaCl, 1 mM DTT, pH 5.5) containing a protease inhibitor cocktail. The cells were lysed by sonication, and the cell extract was cleared by centrifugation at 14,000 rpm for 30 min. The supernatant was loaded onto a 40 mL phosphocellulose (Whatman P-11) column at 4 °C and eluted with a 50 mM to 1 M NaCl gradient in buffer A. Protein was further purified by gel filtration chromatography on a Superdex 200 HA 10/30 column at 4 °C. Pooled fractions were concentrated by centrifugation at 4 °C and desalted using a PD-10 column. The enzyme was stored in 10 mM bicine and 5 mM MgCl2, pH 8 at −80 °C.
(§2) Nucleotide hydrolysis was monitored by mixing enzyme and substrate with a rapid kinetic accessory (Hi-Tech Scientific) attached to a spectrophotometer (Cary 50) and connected to a computer for data acquisition and storage as described previously.[17] Protons, released through the hydrolysis of nucleotides, were neutralized by a pH indicator in weak buffered medium with similar pKa and monitored spectrophotometrically at the absorbance peak of the basic form of the indicator. The ratio between the indicator and the buffer concentration was 50:[…], and the absorbance changes were kept within 0.1 units. The indicator/buffer pair used was red cresol/bicine (pH 8, 573 nm). Assay mixes contained 30 nM PfdUTPase, 50 μM dUTP, 5 mM MgCl2, 1 mg/mL BSA, and 100 mM KCl. Vmax and KMapp were calculated by fitting the resulting data to the integrated Michaelis–Menten equation.

[6] = test system: L6 cells (rat skeletal myoblast cells); experiment: Cytotoxicity on rat L6 myoblasts; format: cell-based
Description: (§3) Activity against P. falciparum K1 strain and cytotoxicity assessment against L6 cells (rat skeletal myoblast cells) was determined as previously reported.[9]

[7] = test system: P. falciparum K1, a chloroquine and pyrimethamine resistant strain; experiment: In vitro antiplasmodial activity, parasites cultured in erythrocytes; format: cell-based; details: Plasmodium falciparum, Erythrocyte, mean of two independent assays, read-out: In vitro assays, EC50 P.fal.
Description: as §1, §3

[8] = target: T2, human dUTPase (HsdUTPase); experiment: Human dUTPase enzyme inhibition assay (dUTP hydrolysis, Ki); format: biochemical; details: recombinant human dUTPase; read-out: Enzyme assay, Ki H. sap.
Description: as §1
Both recombinant P. falciparum and human dUTPases were expressed in E. coli BL21 (DE3) cells which had been transformed with the pET11Pfdut and pET3Hudut (kindly provided by P.O. Nyman, Lund University, Sweden) expression vectors, respectively. For dUTPase purification, the same procedure was used for both the human and the Plasmodium enzymes. Cell pellets from a 2.8 L IPTG-induced culture were resuspended in 70 mL of buffer A (20 mM MES, 50 mM NaCl, 1 mM DTT, pH 5.5) containing a protease inhibitor cocktail. […]
as §2, with “The indicator/buffer pair used was red cresol/bicine (pH 8, 573 nm). Assay mixes contained 30 nM PfdUTPase, 50 μM dUTP, 5 mM MgCl2, 1 mg/mL BSA, and 100 mM KCl. Vmax and KMapp were calculated by fitting the resulting data to the integrated Michaelis–Menten equation.” left out

[9] = recombinant PfdUTPase, 50 μM dUTP, pH 8
[10] = cytotoxicity on rat L6 myoblasts, mean of two independent assays, read-out: In vitro assays, EC50 L6 cells (Tox)

O=c1ccn(CCCCNC(c2ccccc2)(c2ccccc2)c2ccccc2)c(=O)[nH]1 [Compound 1f]
EC50 [1]: 33 µM
Selectivity index (SI) for enzyme [KiHsdUTPase/KiPfdUTPase] [2]: >1111
Ki [3]: > 1000 µM
EC50 [4]: 3.8 µM

O=C(NCCCn1ccc(=O)[nH]c1=O)C(c1ccccc1)(c1ccccc1)c1ccccc1 [Compound 8, 1-(3-(Triphenylacetylamino)propyl)uracil]
Ki [5, 9]: 6.3 µM
melting point: 154 to 156 °C

O=c1ccn([C@H]2C[C@H](O)[C@@H](COC(c3ccccc3)(c3ccccc3)c3ccccc3)O2)c(=O)[nH]1 [Compound 2a]
EC50 [1]: 192 µM
Cell selectivity index (SI) [EC50 L6/EC50 P. falciparum] [1]: 32
Selectivity index (SI) for enzyme [KiHsdUTPase/KiPfdUTPase] [2]: 10
EC50 [4]: 6 µM

O=C(O)CCCn1ccc(=O)[nH]c1=O [Compound 10, 1-(Carboxypropyl)uracil]
Enzyme assay, Ki P.fal [5, 9]: low affinity
Ki [5, 9]: > 100 µM
Cell selectivity index (SI) [EC50 L6/EC50 P. falciparum] [6]: 0.7
EC50 [6, 10]: 18 µM
EC50 [7]: 25 µM
melting point: 174 to 176 °C

O=C(CCCn1ccc(=O)[nH]c1=O)NC(c1ccccc1)c1ccccc1 [Compound 11, 1-[3-(Benzhydrylaminocarbonyl)propyl]uracil]
Ki [5, 9]: 0.7 µM

O=C(c1ccccc1)n1c(=O)ccn(CCCNC(=O)C(c2ccccc2)(c2ccccc2)c2ccccc2)c1=O [Compound 6, 3-Benzoyl-(1-(3-(triphenylacetylamino)propyl)uracil)]
Ki [5, 9]: > 100 µM
Cell selectivity index (SI) [EC50 L6/EC50 P. falciparum] [6]: 1.4
EC50 [6, 10]: 9 µM
EC50 [7]: 6.7 µM

O=C(NCCCO)C(c1ccccc1)(c1ccccc1)c1ccccc1 [Compound 4, N-(3-Hydroxypropyl)-2,2,2-triphenylacetamide]
Ki [5, 9]: 1000 µM
Cell selectivity index (SI) [EC50 L6/EC50 P. falciparum] [6]: 1.9
EC50 [6, 10]: 19 µM
EC50 [7]: 9.8 µM

O=C(CCCn1ccc(=O)[nH]c1=O)NC(c1ccccc1)(c1ccccc1)c1ccccc1 [Compound 12, 1-[3-(Tritylaminocarbonyl)propyl]uracil]
Ki [5, 9]: 0.2 µM

O=c1ccn(CCCOC(c2ccccc2)(c2ccccc2)c2ccccc2)c(=O)[nH]1 [Compound 1a]
EC50 [1]: 34 µM
Selectivity index (SI) for enzyme [KiHsdUTPase/KiPfdUTPase] [2]: 4
EC50 [4]: 7.5 µM

O=C(NC(c1ccccc1)c1ccccc1)[C@H]1O[C@@H](n2ccc(=O)[nH]c2=O)C[C@@H]1O [Compound 17, 2′,5′-Dideoxyuridine-5′-N-benzhydryl carboxamide]
Selectivity index (SI) for enzyme [KiHsdUTPase/KiPfdUTPase] [5]: >12
Ki [5, 9]: 8.3 µM
EC50 [6, 10]: > 90 µM
EC50 [7]: > 5 µM
Ki [8]: > 100 µM

O=c1ccn([C@H]2C[C@H](O)[C@@H](CNC(c3ccccc3)(c3ccccc3)c3ccccc3)O2)c(=O)[nH]1 [Compound 2b]
Selectivity index (SI) for enzyme [KiHsdUTPase/KiPfdUTPase] [2]: 232
EC50 [4]: 4.5 µM

O=C(NCCCO)C(c1ccccc1)c1ccccc1 [Compound 3, N-(3-Hydroxypropyl)-2,2-diphenylacetamide]
Ki [5, 9]: > 100 µM
Cell selectivity index (SI) [EC50 L6/EC50 P. falciparum] [6]: 1.0
EC50 [6, 10]: 18 µM
EC50 [7]: 19 µM

O=c1ccn(CCCCCNC(c2ccccc2)(c2ccccc2)c2ccccc2)c(=O)[nH]1 [Compound 1g]
EC50 [1]: 39 µM
Ki [3]: > 1000 µM
EC50 [4]: 2.2 µM

O=c1ccn([C@H]2C[C@H](O)[C@@H](CNC(c3ccccc3)c3ccccc3)O2)c(=O)[nH]1 [Compound 2c]
EC50 [1]: > 229 µM

O=c1ccn(CCCCCCNC(c2ccccc2)(c2ccccc2)c2ccccc2)c(=O)[nH]1 [Compound 1h]
EC50 [1]: 40 µM
Selectivity index (SI) for enzyme [KiHsdUTPase/KiPfdUTPase] [2]: >556
Ki [3]: > 1000 µM
EC50 [4]: 1.1 µM

O=c1ccn(CCCCCCOC(c2ccccc2)(c2ccccc2)c2ccccc2)c(=O)[nH]1 [Compound 1d]
EC50 [1]: 44 µM
EC50 [4]: 2.3 µM

O=c1ccn(CCCNC(c2ccccc2)(c2ccccc2)c2ccccc2)c(=O)[nH]1 [Compound 1e]
EC50 [1]: 107 µM
EC50 [4]: 4.4 µM

COc1cc([C@@H]2c3cc4c(cc3[C@H](O)[C@H]3COC(=O)[C@H]23)OCO4)cc(OC)c1OC [podophyllotoxin, reference compound]
EC50 ([6]; Rattus norvegicus, L6, read-out: In vitro assays, EC50 L6 cells (Tox)): 0.012 µM

O=c1ccn(CCCCCOC(c2ccccc2)(c2ccccc2)c2ccccc2)c(=O)[nH]1 [Compound 1c]
EC50 [1]: 24 µM
Ki [3]: > 1000 µM
EC50 [4]: 1.1 µM

O=c1ccn(CCCCOC(c2ccccc2)(c2ccccc2)c2ccccc2)c(=O)[nH]1 [Compound 1b]
EC50 [1]: 42 µM
Ki [3]: > 1000 µM
EC50 [4]: 4.9 µM

O=C(NCCCn1ccc(=O)[nH]c1=O)C(c1ccccc1)c1ccccc1 [Compound 7, 1-(3-(Diphenylacetylamino)propyl)uracil]
Selectivity index (SI) for enzyme [KiHsdUTPase/KiPfdUTPase] [5]: 26
Ki [5, 9]: 11 µM
Cell selectivity index (SI) [EC50 L6/EC50 P. falciparum] [6]: 1.3
EC50 [6, 10]: 18 µM
EC50 [7]: 14 µM
melting point: 145 to 147 °C
Ki [8]: 286 µM
